# Values of other authors as cited in US20240397942A1, “METHOD FOR PRODUCING REPELLENT OR ATTRACTANT FOR ORGANISMS, REPELLENT OR ATTRACTANT FOR ORGANISMS, AND METHOD FOR REPELLING OR ATTRACTING ORGANISMS” (Sony Group Corporation, priority 2021, published 2024).
# Legend:
# Settings in all cases: in vivo
# [1] = test system: flour beetles
# [2] = test system: Mexican bean beetles
# [3] = test system: whiteflies (infection vector of tomato yellowing gangrene virus)
# [4] = test system: house dust mites (indoor mites)
# [5] = test system: peach-potato aphids
# [6] = test system: fruit flies
# [7] = test system: Asian tiger mosquitoes
# [8] = test system: giant assassin bugs
# [9] = test system: sirex woodwasps
# [10] = test system: plant hoppers (rice pests)
# [11] = test system: stink bugs
# [12] = test system: spider mites
# [13] = test system: organisms
# [14] = test system: malaria mosquitoes
# [15] = test system: green tea leafhoppers
compound,measurement,setting,value
C=CCCCCCCCCCCCC [1-tetradecene],repellent effect on flour beetles,[1],repellent effect
same,repellent effect on Mexican bean beetles,[2],repellent effect
CCCCC(CC)CO (stereo not shown) [2-ethyl-1-hexanol],attractant effect on whiteflies,[3],attractant effect
"CCCCCCCCCC=O [Example 1-decanal, 1-decanal]",attractant effect on house dust mites (indoor mites),[4],attractant effect
"CCCCCC=O [Example 1-hexanal, 1-hexanal]",attractant effect on peach-potato aphids,[5],attractant effect
"CCCCCCCC=O [Example 1-octanal, 1-octanal]",attractant effect on house dust mites (indoor mites),[4],attractant effect
CC=O [acetaldehyde],attractive (attractant) effect on fruit flies,[6],attractant effect
CC(=O)O [acetic acid],attractant effect on Asian tiger mosquitoes,[7],attractant effect
CC(=O)c1ccccc1 [acetophenone],repellent effect on giant assassin bugs,[8],repellent effect
same,repellent effect on sirex woodwasps,[9],repellent effect
same,attractive effect on plant hoppers (rice pests),[10],attractive effect
same,attractive effect on stink bugs,[11],attractive effect
CC(=O)CC(C)=O [acetylacetone],repellent effect on sirex woodwasps,[9],repellent effect
O=Cc1ccccc1 [benzaldehyde],attractive (attractant) effect on fruit flies,[6],attractive effect
CCCCCCCCCCCCCCCC [hexadecane],repellent effect on spider mites,[12],repellent effect
C=Cc1ccccc1 [styrene],repellent or attractant effect on organisms,[13],no repellent or attractant effect
CCCCCCCCCCCCCC [tetradodecane],repellent effect on malaria mosquitoes,[14],repellent effect
hexadecene,repellent effect on green tea leafhoppers,[15],repellent effect
xylene,repellent effect on whiteflies,[3],repellent effect
